Measurements from patent US10206394B2, “Herbicidal compounds” (Syngenta Participations AG, priority 2014, dated 2019).
Like-named read-outs stand apart in the source and are kept apart here.

Experiments:
Assay in all cases: Glasshouse assay for herbicidal activity (pre- and post-emergence), percentage phytotoxicity
Format in all cases: in vivo
[1] = tested on: Echinochloa crus-galli (ECHCG); conditions: Echinochloa crus-galli, 250 g/ha, visual assessment (100%=total damage, 0%=no damage)
In short: (§1)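 Seeds were sown in standard soil in pots and grown one day (pre-emergence) or about 12 days (post-emergence) before herbicide application. Plants were kept at 24/18 °C (warm-climate) or 20/16 °C (cool-climate) day/night, 16 h light, 65% humidity, watered twice daily, and damage was scored visually at 15 DAA (POST) or 20 DAA (PRE).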

[2] = tested on: Alopecurus myosuroides (ALOMY); conditions: Alopecurus myosuroides, 250 g/ha, visual assessment (100%=total damage, 0%=no damage)
In short: as §1

Avena fatua (AVEFA) = conditions: Avena fatua, 250 g/ha, visual assessment (100%=total damage, 0%=no damage)
In short: as §1

Lolium perenne (LOLPE) = conditions: Lolium perenne, 250 g/ha, visual assessment (100%=total damage, 0%=no damage)
In short: as §1

[3] = post-emergence, 360 h, post-emergence, 15 DAA, read-out: Post-emergence herbicidal activity (percentage phytotoxicity) ECHCG POST
[4] = pre-emergence, 480 h, pre-emergence, 20 DAA, read-out: Pre-emergence herbicidal activity (percentage phytotoxicity) ECHCG PRE
[5] = post-emergence, 360 h, post-emergence, 15 DAA, read-out: Post-emergence herbicidal activity (percentage phytotoxicity) ALOMY POST
[6] = pre-emergence, 480 h, pre-emergence, 20 DAA, read-out: Pre-emergence herbicidal activity (percentage phytotoxicity) ALOMY PRE
[7] = post-emergence, 360 h, post-emergence, 15 DAA, read-out: Post-emergence herbicidal activity (percentage phytotoxicity) AVEFA POST
[8] = pre-emergence, 480 h, pre-emergence, 20 DAA, read-out: Pre-emergence herbicidal activity (percentage phytotoxicity) AVEFA PRE
[9] = post-emergence, 360 h, post-emergence, 15 DAA, read-out: Post-emergence herbicidal activity (percentage phytotoxicity) LOLPE POST
[10] = pre-emergence, 480 h, pre-emergence, 20 DAA, read-out: Pre-emergence herbicidal activity (percentage phytotoxicity) LOLPE PRE

| Structure (SMILES) | pest or weed control at 250 g/ha [1, 3] [%] | pest or weed control at 250 g/ha [1, 4] [%] | pest or weed control at 250 g/ha [2, 5] [%] | pest or weed control at 250 g/ha [2, 6] [%] | pest or weed control at 250 g/ha (Avena fatua (AVEFA); [7]) [%] | pest or weed control at 250 g/ha (Avena fatua (AVEFA); [8]) [%] | pest or weed control at 250 g/ha (Lolium perenne (LOLPE); [9]) [%] | pest or weed control at 250 g/ha (Lolium perenne (LOLPE); [10]) [%] |
| --- | --- | --- | --- | --- | --- | --- | --- | --- |
| Cc1cc(OCC(F)(F)F)cc(C)c1C1C(=O)CC(CC(=O)N2CCOCC2)C1=O (stereo not drawn) [Compound B146] | 100 | 100 | 80 | 90 | 90 | 50 | 90 | 90 |
| C=C(C)CNC(=O)CC1CC(=O)C(c2c(C)cc(OCC(F)(F)F)cc2C)C1=O (stereo not drawn) [Compound B147] | 90 | 100 | 80 | 90 | 90 | 50 | 60 | 90 |
| CCc1cccc(C)c1C1C(=O)CC(CC(=O)N2CCOCC2)C1=O (stereo not drawn) [Compound B148] | 100 | 100 | 90 | 70 | 100 | 70 | 90 | 80 |
| CCc1cccc(C)c1C1C(=O)CC(CC(=O)NC(C)(C)C)C1=O (stereo not drawn) [Compound B149] | 90 | 100 | 90 | 90 | 90 | 80 | 80 | 90 |
| CCCNC(=O)CC1CC(=O)C(c2c(C)cccc2CC)C1=O (stereo not drawn) [Compound B150] | 100 | 100 | 100 | 100 | 100 | 90 | 100 | 100 |
| C#CCNC(=O)CC1CC(=O)C(c2c(C)cccc2CC)C1=O (stereo not drawn) [Compound B151] | 100 | 100 | 100 | 100 | 100 | 90 | 90 | 90 |
| C=C(C)CNC(=O)CC1CC(=O)C(c2c(C)cccc2CC)C1=O (stereo not drawn) [Compound B152] | 100 | 100 | 100 | 100 | 90 | 50 | 90 | 100 |
| C/C=C/c1cc(C)c(C2C(=O)CC(CC(N)=O)C2=O)c(CC)c1 (stereo not drawn) [Compound B153] | 100 | 90 | 100 | 90 | 100 | 70 | 100 | 80 |
| Cc1cc(OCC(F)(F)F)cc(C)c1C1C(=O)CC(CC(N)=O)C1=O (stereo not drawn) [Compound B154] | 90 | 80 | 70 | 90 | 70 | 50 | 70 | 70 |
